PMC3746831 (Pharmaceutical research, 2013)
Read-outs that look alike come from different tables or passages of the source.

Tests used:
[1] = test system: Herpes Simplex Virus 1 (HSV-1), E-377 strain; assay: Plaque reduction assay for HSV-1 in HFF cells; type: cell-based; conditions: for EC50: read-out: HSV-1 EC50; for EC90: read-out: HSV-1 EC90
[2] = test system: Herpes Simplex Virus 2 (HSV-2), MS strain; assay: Plaque reduction assay for HSV-2 in HFF cells; type: cell-based; conditions: for EC50: read-out: HSV-2 EC50; for EC90: read-out: HSV-2 EC90
HFF cells = assay: in vitro; type: cell-based, human
in vitro [3] = type: cell-based, human; conditions: human
[4] = test system: Epstein-Barr Virus (EBV), Akata; assay: DNA hybridization assay for EBV in Akata cells; type: cell-based; conditions: 72 h; for EC50: read-out: EBV EC50; for EC90: read-out: EBV EC90
in vitro [5] = type: cell-based, human; conditions: human; remark: listed apart in the source
[6] = test system: Human Cytomegalovirus (HCMV), AD169 strain; assay: Plaque reduction assay for HCMV in HFF cells; type: cell-based; conditions: for EC50: read-out: HCMV EC50, control is GCV; for EC90: read-out: HCMV EC90, control is GCV
Akata cells = assay: in vitro; type: cell-based, human
HCEC cells = assay: Cellular uptake study on HCEC cells; type: cell-based, human; conditions: sodium free DPBS, 37°C, relative to uptake with sodium
[7] = Enzymatic hydrolysis in cornea homogenate; conditions: 100 μM prodrug, 0.5mg/mL protein, 34°C
[8] = Enzymatic hydrolysis in lens homogenate; conditions: 100 μM prodrug, 34°C
[9] = Enzymatic hydrolysis in iris-ciliary body; conditions: 100 μM prodrug, 34°C
[10] = human gammaherpesvirus 4, Akata
[11] = Akata cells, viral DNA accumulation

Structure (SMILES)	CC50 (in vitro [3])	EC50 ([1]; E-377 strain, HFF cells)	EC90 ([1]; E-377 strain, HFF cells)	EC50 ([2]; MS strain, HFF cells)	EC90 ([2]; MS strain, HFF cells)	EC50 [6]	EC90 [6]	EC50 [4, 11]	EC90 [4, 11]	CC50 (Akata cells)	Uptake in the presence of a sodium free buffer (reduced to) (HCEC cells)	CC50 (HFF cells)	Cornea Rate constant [7]	other results
Nc1nc2c(ncn2COCCO)c(=O)[nH]1 [ACV, Acyclovir, reference compound]	> 100 µM													EC50 ([1]; Human alphaherpesvirus 1, HFF): 3.43 µM; EC90 ([1]; Human alphaherpesvirus 1, HFF): > 100 µM; EC50 ([2]; Human alphaherpesvirus 2, HFF): 5.98 µM; EC90 ([2]; Human alphaherpesvirus 2, HFF): > 100 µM; CC50 (HFF cells; human): > 100 µM; EC50 [4, 10]: 12.4 µM; EC90 [4, 10]: 67.3 µM; CC50 (in vitro [5]): > 100 µM
Nc1nc(O)c2ncn(COC(CO)CO)c2n1 [GCV, Ganciclovir, reference compound]	> 100 µM													
CCCCCCC(O)CCCCCCCCCCC(=O)OCCOCn1cnc2c(=O)[nH]c(N)nc21 (stereo not shown) [12HS-ACV, 12hydroxystearicacid-acyclovir]		1.16 µM	6.24 µM	0.41 µM	> 300 µM	101 µM	137 µM	35.8 µM	55 µM	47.3 µM				Increase in antiviral activity against HSV-1 relative to ACV (by EC50) ([1]; from EC50 values): greater than 3 fold; Increase in antiviral activity against HSV-2 relative to ACV (by EC50) ([2]; from EC50 values): > 15 fold
CCCCCCC(CCCCCCCCCCC(=O)OCCOCn1cnc2c(=O)[nH]c(N)nc21)OC(=O)CCCC[C@@H]1SC[C@@H]2NC(=O)N[C@@H]21 (stereo partly shown) [B-12HS-ACV, Biotin-12hydroxystearicacid-acyclovir]		< 0.096 µM	0.42 µM	< 0.096 µM	4.65 µM	> 300 µM	> 300 µM	37.2 µM	> 60 µM	> 60 µM	~41%	> 300 µM	1.78 ± 0.29 k×10^3 min^−1 mg protein^-1	
Nc1nc2c(ncn2COCCOC(=O)CCCC[C@@H]2SC[C@@H]3NC(=O)N[C@@H]32)c(=O)[nH]1 [B-ACV, Biotin-acyclovir]		182 µM	> 300 µM	> 300 µM	> 300 µM			22.3 µM	52.8 µM	> 60 µM	~45%		1.99 ± 0.21 k×10^3 min^−1 mg protein^-1	Degradation in lens homogenate (in words) [8]: complete degradation; Degradation in ICB homogenate (in words) [9]: complete degradation; Cornea Half-life [7]: 5.80 ± 0.49 h
CCCCCCC(O)CC=CCCCCCCCC(=O)OCCOCn1cnc2c(=O)[nH]c(N)nc21 (stereo not shown) [R-ACV, Ricinoleicacid-acyclovir]		8.3 µM	168 µM	3.4 µM	8.89 µM	46.5 µM	> 300 µM	10.7 µM	49.5 µM	> 60 µM		> 300 µM		
